# Data taken from patent publication US11464782B2, “Method of treating pain or interstitial cystitis using indole compound” (Japan Tobacco Inc., priority 2018, dated 2022).
# Test system: CIA model rats
# Test: Analgesic effect in rat collagen-induced arthritis (CIA) model, paw withdrawal threshold by Randall-Selitto method
# Assay type: in vivo
# Settings: rats with CIA; 10 or 30 mg/kg oral once per day Days 22-28; measured Day 28
# Protocol: The analgesic effect of Compound A on hypersensitivity to pain during the onset of arthritis in a rat CIA model was evaluated. Hypersensitivity to pain was evaluated using the paw withdrawal threshold (PWT) in relation to mechanical stimulus using the Randall-Selitto method.
# Female LEW/CrlCrlj rats (Charles River Laboratories Japan, Inc.) were used for the experiment. A monohydrochloride of Compound A was dissolved in 0.5% methyl cellulose (MC) to prepare 2 mg/mL and 6 mg/mL solutions of Compound A. Type II collagen derived from joint bovine cartilage (Collagen Research Center) was dissolved in acetic acid to prepare a 2 mg/mL type II collagen solution. Equal volumes of the 2 mg/mL type II collagen solution and incomplete Freund's adjuvant were mixed to prepare a 1 mg/mL type II collagen emulsion.
# On Day 1, the type II collagen emulsion was intradermally injected into the animals in the vehicle group, the Compound A 10 mg/kg administration group, and the Compound A 30 mg/kg administration group. On Day 8, the type II collagen emulsion was intradermally injected into the animals in the vehicle group, the Compound A 10 mg/kg administration group, and the Compound A 30 mg/kg administration group. […] On Day 28, the analgesic effect was measured using a Randall-Selitto analgesy-meter (TK-201, UNICOM). The means values and standard deviations of the PWT values for each group were calculated.
smiles,measurement,value
"C[C@@H](C(=O)N(C)c1ccc2cc(-c3n[nH]c4c3CCC(C)(C)C4)[nH]c2c1)N1CCOCC1 [Compound A, N-[2-(6,6-dimethyl-4,5,6,7-tetrahydro-1H-indazol-3-yl)-1H-indol-6-yl]-N-methyl-(2S)-2-(morpholin-4-yl)propanamide]",hyperalgesia (paw withdrawal threshold to mechanical stimulus),attenuated hyperalgesia
